Experiments:
Rev-Erb alpha [1] = target: T1, Rev-Erb alpha (Homo sapiens, UniProt P20393); test: TR-FRET (HTRF) assay of Rev-Erb alpha LBD with NCoR peptide ID1; type: biochemical; settings: cell-free, Rev-Erb alpha LBD His 20 nM, NCoR ID1 30 nM
T1 sequence (P20393 284-614 limits assumed): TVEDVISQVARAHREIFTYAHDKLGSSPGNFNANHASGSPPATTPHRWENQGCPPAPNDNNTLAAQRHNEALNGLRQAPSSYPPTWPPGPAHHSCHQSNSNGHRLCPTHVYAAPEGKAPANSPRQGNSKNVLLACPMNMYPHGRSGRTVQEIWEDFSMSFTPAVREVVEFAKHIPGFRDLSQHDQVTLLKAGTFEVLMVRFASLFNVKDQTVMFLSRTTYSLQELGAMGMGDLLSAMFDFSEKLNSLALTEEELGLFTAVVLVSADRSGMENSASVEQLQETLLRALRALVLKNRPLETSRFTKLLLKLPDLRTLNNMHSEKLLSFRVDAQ
Description: Recombinant histidine-tagged Rev-Erb alpha ligand binding domain (LBD; SEQ ID NO: 1) and NCoR peptide ID1 (SEQ ID NO: 2) were tagged with fluorophores. Histidine-tagged Rev-Erb alpha LBD protein was set up in a one to one ratio of 20 nM of His D2 (Cis Bio International 61HSDLB). The NCoR peptide (ID1) was prepared in-house. We used a concentration of 30 nM NCoR and 10 nM Terbium-labeled streptavidin (Cis Bio International 610SATLB).
The buffer for this assay comprised PBS pH 7.2, NaH2P04 at 4 g/L, Na2HP04 at 27 g/L and NaCl at 9 g/l in deionized water. Before using the buffer in the assay, a mixture comprising 1 mM of DTT, 2 mM of CHAPS, 1 mM of EDTA and 0.1% BSA fatty acid free was added to the appropriate amount of buffer. The protein mixture comprising recombinant Rev-Erb alpha LBD His (20 nM), the NCoR ID1 (30 nM) and their respective fluorophores were added to each well of a 384-well plate in a volume 18 μl. The compounds to analyze were diluted in PBS 10% DMSO and was added in a volume of 2 μL in a well. The final mixture volume was 20 μL and the mixture was allowed equilibrate for 2 hours at room temperature. Fluorescence intensity was then counted on the TECAN Genios Pro as a ratio of the fluorescence measured at 665 nm and that measured at 620 nm obtained in the absence of the compound (buffer only) or with the compound. Four experiments were carried out for each compound.
Each compound has been tested at 6 different concentrations to depict a dose-effect enabling the measure of biochemical parameters such as EC50 and TOP activation (%).
The Homogenous Time Resolved Fluorescence (HTRF) assay allows studying the ability of compounds according to the invention to activate Rev-Erb alpha and thus modulate the interaction with its corepressor. The molecular interactions between these bio-molecules are assessed in a cell-free assay by coupling each partner with a fluorescent label and detecting the level of energy transfer. This energy transfer occurs when the distance between the donor (SA Terbium complex) and the acceptor (D2) is small enough.
The ability of compounds according to the invention of activating Rev-Erb alpha was assessed in the described acellular assay. EC50 and TOP activation were measured.

Rev-Erb alpha [2] = target: T1, Rev-Erb alpha; test: M2H (mammalian two-hybrid) cellular activation assay of Rev-Erb alpha; type: cell-based; settings: M2H assay, HEK293 cells, Gal4-Rev-Erb alpha / VP16-NCoR, luciferase reporter
Summary of the method: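 Six-point dose-response, 18 h, 37 °C, serum-free, in HEK293 cells carrying a Gal4-RE luciferase reporter with Gal4-Rev-Erb alpha or beta plus VP16-NCoR (corepressor interaction readout). EC50 and TOP activation (%) derived from luminescence across four experiments.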

Rev-Erb beta = target: T2, Rev-Erb beta (Homo sapiens, UniProt Q14995); test: M2H (mammalian two-hybrid) cellular activation assay of Rev-Erb beta; type: cell-based; settings: HEK293 cells, Gal4-Rev-Erb beta / VP16-NCoR, luciferase reporter
T2 sequence (Q14995 369-579 limits assumed): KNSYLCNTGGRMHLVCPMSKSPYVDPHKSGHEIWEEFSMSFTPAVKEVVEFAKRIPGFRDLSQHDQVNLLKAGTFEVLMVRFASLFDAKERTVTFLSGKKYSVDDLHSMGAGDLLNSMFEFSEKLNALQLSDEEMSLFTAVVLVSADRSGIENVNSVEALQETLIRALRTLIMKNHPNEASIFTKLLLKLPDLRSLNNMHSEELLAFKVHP
Description: In this system, Rev-Erb alpha or Rev-Erb beta is expressed as a fusion to the Gal4 DNA-binding domain and the cofactor NCoR is expressed as a fusion to the activation domain of the Herpes Simplex Virus tegument protein VP16. These fusion proteins were included in plasmids at a concentration of 1 μg/μL. The pBS-SK+ vector was added to the preparation to adjust the DNA quantity to a fixed value for each condition.
The transfection mix (Jet-PEI protocol, Polyplus transfection) comprised: • 3 mL of Jet PEI Mix (180 μL Jet-Pei and NaCl at 150 mM) and • 3 mL of the DNA Mix or of the DNA Mix control (wherein the Gal4-Rev-Erb alpha plasmid was replaced by a pGal4phi plasmid).
DNA Mix comprised 1.2 mL of DNA and 1.8 mL of NaCl at 150 mM with, in a T225 flask: • 90 ng of Gal4-Rev-Erb alpha, or 90 ng of Gal4-Rev-Erb beta, • 4500 ng of VP16-NCoR, • 27000 ng of Gal4-RE and • 13410 ng of pBS-SK+. Cells
HEK293 cells were cultured in DMEM (Invitrogen 41965) comprising 10% FBS, P/S, 1% glutamine, 1% pyruvate (Invitrogen 11360) and 1% amino acids (Invitrogen 11140). Cells were then batch co-transfected with plasmid vectors (described in the table above) using as Jet-PEI as reagent (Polyplus) following the protocol specified below.
The 6 mL-transfection mix was transferred in a T225 flask. HEK293 cells were then added at a concentration of 12 Millions of cells for 54 mL of medium (DMEM comprising 10% FBS and 1% P/S). Cells incubated over-night at 37° C. and under 5% CO2.
This cell-based assay is performed using 384-well Greiner white plates (Reference 781080). After the incubation, cells were rinsed with PBS, trypsinized, centrifuged and resuspended in free-serum DMEM without phenol red (Invitrogen 31053). Cells were counted and adjusted to 0.5 Million per mL and plated at a concentration of 10,000 cells in 20 μL per well. They were incubated a minimum of 4 hours at 37° C. under 5% CO2. Cells were treated with 20 μL of the compound to analyze (concentration of 2× diluted in DMEM without FBS containing a maximum of 1% DMSO) and incubated over-night (18 hours, 37° C. and 5% CO2). Each compound has been tested at 6 different concentrations to depict a dose-effect allowing the measure of biochemical parameters such as EC50 and TOP activation (%).
Cells were incubated 30 minutes with 40 μL/well of Steady Glow (Promega) and luminescence was read with TECAN Genios Pro (100 ms/w). Four experiments were carried out for each compound.
Each compound has been tested at 6 different concentrations to depict a dose-effect allowing the measure of biochemical parameters such as EC50 and TOP activation (%).
The mammalian two-hybrid system (M2H) assay consists herein in studying the ability of compounds according to the invention to activate Rev-Erbalpha in cells and thus modulate the interaction with its corepressor. The interaction of the two proteins is assessed with the help of the Luciferase reporter gene. HEK293 cells were transfected with two gene constructions: Gal4-RE VP16-NCoR and Gal4-Rev-Erbalpha or with Gal4-RE, sVP16-NCoR and Gal4-Rev-Erb beta.
The ability of compounds according to the invention of activating Rev-Erbalpha alpha or Rev-Erb beta was assessed in the described cell-based assay. EC50 and TOP activation (%) were measured.

diet induced obese mice = settings: Solt et al; cited from earlier work
[3] = high clearance and rapid metabolism; cited from earlier work

Row | SMILES | melting point | EC50 (Rev-Erb alpha [1]) | EC50 (Rev-Erb alpha [2]) | EC50 (Rev-Erb beta) | metabolic parameters (diet induced obese mice) | pharmacokinetic properties [3]
1 | Clc1nnc2ccc(Oc3ccccc3-c3ccccc3)nn12 [Cpd.4-1, 6-(biphenyl-2-yloxy)-3-chloro-[1,2,4]triazolo[4,3-b]pyridazine] | 163 °C | 1100 to 6000 nM | < 100 nM |  |  | 
2 | O=C(c1ccccc1)c1cccc(Oc2ccc3nnc(C(F)(F)F)n3n2)c1 [Cpd.3-4, (3-(3-(trifluoromethyl)-[1,2,4]triazolo[4,3-b]pyridazin-6-yloxy)phenyl)(phenyl)methanone] | 94.4 °C | 100 to 1000 nM | 100 to 1000 nM |  |  | 
3 | CN(C)c1ccc(Oc2ccc3nnc(Cl)n3n2)c(-c2ccccc2)c1 [Cpd.4-46, 3-chloro-6-(5-dimethylamino-biphenyl-2-yloxy)-[1,2,4]triazolo[4,3-b]pyridazine] | 148 to 149 °C |  | < 100 nM | 100 to 1000 nM |  | 
4 | COc1ccc(-c2ccccc2)c(Oc2ccc3nnc(Cl)n3n2)c1 [Cpd.4-6, 6-(4-methoxy-biphenyl-2-yloxy)-3-chloro-[1,2,4]triazolo[4,3-b]pyridazine] | 128.1 °C | < 100 nM | 100 to 1000 nM |  |  | 
5 | O=C(c1ccccc1)c1cccc(Oc2ccc3nnc(Cl)n3n2)c1 [Cpd.3-2, (3-(3-chloro-[1,2,4]triazolo[4,3-b]pyridazin-6-yloxy)phenyl)(phenyl)methanone] | 148 °C | < 100 nM | 100 to 1000 nM |  |  | 
6 | CCCCCNC(=O)N1CCC(CN(Cc2ccc(Cl)cc2)Cc2ccc([N+](=O)[O-])s2)C1 (centres unmarked) [SR9011] |  |  |  |  | improve the metabolic parameters | 
7 | CN(C)c1ccc(-c2ccccc2)c(Oc2ccc3nnc(Cl)n3n2)c1 [Cpd.4-45, 3-chloro-6-(4-N,N-dimethylamino-biphenyl-2-yloxy)-[1,2,4]triazolo[4,3-b]pyridazine] |  |  | < 100 nM | 100 to 1000 nM |  | 
8 | Clc1nnc2ccc(Oc3ccccc3Cc3ccccc3)nn12 [Cpd.4-4, 6-(2-benzylphenoxy)-3-chloro-[1,2,4]triazolo[4,3-b]pyridazine] | 113.7 °C | 100 to 1000 nM | 100 to 1000 nM |  |  | 
9 | FC(F)(F)c1nnc2ccc(Cc3ccccc3-c3ccccc3)nn12 [Cpd.4-12, 6-(biphenyl-2-ylmethyl)-3-(trifluoromethyl)-[1,2,4]triazolo[4,3-b]pyridazine] | 117.4 °C | 1100 to 6000 nM | 1000 to 6000 nM |  |  | 
10 | CC(C)(C)c1ccc(Oc2ccc3nnc(Cl)n3n2)c(-c2ccccc2)c1 [Cpd.4-19, 6-(5-tert-butyl-biphenyl-2-yloxy)-3-chloro-[1,2,4]triazolo[4,3-b]pyridazine] | 199.1 °C |  | 100 to 1000 nM | 100 to 1000 nM |  | 
11 | O=C(c1ccccc1)c1ccccc1Oc1ccc2nnc(C(F)(F)F)n2n1 [Cpd.4-8, (2-(3-(trifluoromethyl)-[1,2,4]triazolo[4,3-b]pyridazin-6-yloxy)phenyl)(phenyl)methanone] | 112.1 °C | 100 to 1000 nM | 1000 to 6000 nM |  |  | 
12 | FC(F)(F)c1nnc2ccc(Oc3cccc(Cc4ccccc4)c3)nn12 [Cpd.3-5, 6-(3-benzylphenoxy)-3-(trifluoromethyl)-[1,2,4]triazolo[4,3-b]pyridazine] | 115 °C | 100 to 1000 nM | 100 to 1000 nM |  |  | 
13 | CCOC(=O)N1CCC(CN(Cc2ccc(Cl)cc2)Cc2ccc([N+](=O)[O-])s2)C1 (centres unmarked) [SR9009] |  |  |  |  | improve the metabolic parameters | 
14 | CCOC(=O)C1Cc2ccccc2CN1C(=O)c1ccc(SC)s1 (centres unmarked) [SR8278] |  |  |  |  |  | poor pharmacokinetic properties
15 | CCCCNc1ccc(Oc2ccc3nnc(Cl)n3n2)c(-c2ccccc2)c1 [Cpd.4-58, 3-chloro-6-(5-butylamino-biphenyl-2-yloxy)-[1,2,4]triazolo[4,3-b]pyridazine] | 85 to 88 °C |  | 100 to 1000 nM | 100 to 1000 nM |  | 
16 | CCNc1ccc(Oc2ccc3nnc(Cl)n3n2)c(-c2ccccc2)c1 [Cpd.4-54, 3-chloro-6-(5-ethylamino-biphenyl-2-yloxy)-[1,2,4]triazolo[4,3-b]pyridazine] | 72 to 77 °C |  | 100 to 1000 nM | 100 to 1000 nM |  | 
17 | Cc1cc(Oc2ccc3nnc(Cl)n3n2)c(-c2ccccc2)cc1C [Cpd.4-18, 6-(4,5-dimethyl-biphenyl-2-yloxy)-3-chloro-[1,2,4]triazolo[4,3-b]pyridazine] | 147.5 °C |  | < 100 nM | 100 to 1000 nM |  | 
18 | Fc1ccc(-c2ccccc2)c(Oc2ccc3nnc(Cl)n3n2)c1 [Cpd.4-7, 6-(4-fluoro-biphenyl-2-yloxy)-3-chloro-[1,2,4]triazolo[4,3-b]pyridazine] | 180.7 °C | < 100 nM | 100 to 1000 nM |  |  | 

Reference: patent US9586963B2 (GENFIT, priority 2011, dated 2017)
